These results are taken from patent US6500866B1, “1-(adamantyl)amidines and their use in the treatment of conditions generally associated with abnormalities in glutamatergic transmission” (Vernalis Research Limited, priority 1997, dated 2002).

Where a name gives a salt, the structure may show the parent alone.

Data set [1] concerns the target PCP site of the NMDA receptor (cortical). Put plainly: [3H]-MK-801 binding, PCP site of NMDA receptor, rat cortical membranes. As to conditions: rat cortex membranes, [3H]-MK-801 5 nM, 10 μM glutamate, 10 μM glycine. The text has this: (§1) The NMDA receptor contains several distinct binding domains that can regulate opening of the cationic channel. The phencyclidine (PCP) site of the NMDA receptor can be radiolabeled with [^3H]-(+)-5-methyl-10,11-dihydro-5H-dibenzo[a,d]cyclohepten-5,10-imine hydrogen maleate, [^3H-MK-801]. The following describes the procedure for determining the affinity of compounds for the PCP site in rat cortical or cerebellar membranes.
(§2) Frozen rat cortex or cerebellum, homogenized in 10 volumes of ice cold 0.32 M. sucrose is centrifuged at 1,000 g for 12 min and the supernatant stored on ice whilst the pellet was resuspended, rehomogenized and recentrifuged twice more. The three final supernatants were pooled and centrifuged at 30,000 g for 40 min at 4° C. to yield P2 pellets. These were resuspended in ice-cold distilled water, and centrifuged at 30,000 g for 50 min at 4° C. Following three further washes in distilled water, the P2 pellets were stored at −20° C. for at least 18 h. On the day of the assay, membrane pellets were thawed at room temperature, resuspended in ice-cold distilled water and centrifuged at 30,000 g for 20 min. The pellets were resuspended in 50 mM tris-HCl (pH:7.4) and recentrifuged twice more before being resuspended in tris-HCl for immediate use in the assay. Binding assays were performed at equilibrium in a total volume of 200 μl, containing, [^3H]-MK-801 (5 nM final conc.), 10 μM glutamate, 10 μM glycine, 160 μl of membrane preparation and additional drugs where appropriate. Non-specific binding was determined using MK-801 (10 μM). The assay was incubated for 120 min at room temperature. The incubation was terminated by rapid filtration through Whatman GF/B filters (pre-soaked in 0.1% PEI solution). The assay tubes and filters were washed five times with 1 ml of ice cold assay buffer. The filters were placed in poly-Q mini vials with approximately 5 ml of scintillation fluid. The vials are then shaken and left for at least 8 hours before being counted on a liquid scintillation counter. To determine the free ligand concentration 3 aliquots (20 μl) of the [^3H]-MK-801 working solution were also counted. Concentration response data for drugs was analysed using a 4 parameter equation fitted by non linear regression. This yielded the half maximally effective drug concentration (IC50) and Hill coefficient.

Data set [2] deals with PCP site of the NMDA receptor (cerebellar). In words: [3H]-MK-801 binding, PCP site of NMDA receptor, rat cerebellar membranes. The following applies: IC50 cortex / IC50 cerebellum.
Source text: as §1, §2

Data set [3] deals with T1, PCP site of the NMDA receptor (cerebellar).
T1 construct: IC50(μM) Cerebellum; other: rat cerebellum membranes, [3H]-MK-801 5 nM, 10 μM glutamate, 10 μM glycine
The data set is described as above. The following applies: rat cerebellum membranes, [3H]-MK-801 5 nM, 10 μM glutamate, 10 μM glycine.
Source text: as §1, §2

As usually defined, the IC50 is the concentration that inhibits the measured activity by half. Higher therefore signals weaker potency. The melting point is the temperature, or range, at which the solid turns liquid.

As to `Cl.N=C(N)C(Cc1ccccc1)C12CC3CC(CC(C3)C1)C2` (centres unmarked) [Example 16, 2-(1-Adamantyl)-3-phenylpropanimidamide hydrochloride], the results for the 50% inhibitory concentration (IC50) in data set [1] and in data set [3] were 52 µM and 27 µM, respectively. For the same compound, in data set [2], the “Ratio of cortical to cerebellar binding affinity” value (“Ratio of cortical” for short) worked out at 1.9. In the case of `CCNC(=N)C12CC3CC(CC(C3)C1)C2` (as salt: hydrochloride) [Example 8, N-Ethyl-1-adamantanecarboximidainide hydrochloride], the melting point was 315 °C (dec.). Same read-out and setting: for `CC12CC3CC(C)(C1)CC(CCC(=N)N)(C3)C2` (as salt: hydrochloride) [Example 11, 3-(3,5-Dimethyl-1-adamantyl)propanimidamide hydrochloride] the value was 246 to 248 °C.

Take `CC12CC3(C)CC(C)(C1)CC(C(=N)N)(C2)C3.Cl` [Example 13, 3,5,7-Trimethyl-1-adamantanecarboximidamide hydrochloride]: the figures for the IC50 in data set [1] and in data set [3] were 43 µM and 18 µM, respectively. Besides, in data set [2], the “Ratio of cortical” value was determined as 2.4.

`CC12CC3CC(C)(C1)CC(CC(=N)N)(C3)C2` (as salt: hydrochloride) [Example 5, 3,5-Dimethyl-1-adamantaneacetiniidamide hydrochloride] gave a melting point of 252 to 253 °C.

On to `C=CCNC(=N)C12CC3CC(C)(CC(C)(C3)C1)C2` (as salt: hydrochloride) [Example 6, N-Allyl-3,5-dimethyl-1-adamantanecarboximidamide hydrochloride], for which the melting point was 222 to 224 °C. The compound `N=C(NCc1ccccc1)C12CC3CC(CC(C3)C1)C2` (as salt: hydrochloride) [Example 9, N-Benzyl-1-adamantanecarboximidamide hydrochloride] showed a melting point of 242 to 244 °C. The same measure, in the same setting: for `C=CCNC(=N)C12CC3CC(CC(C3)C1)C2` (as salt: hydrochloride) [Example 7, N-Allyl-1-adamantanecarboximidamide hydrochloride] the value was 252 to 254 °C.

Consider `CC12CC3CC(C)(C1)CC(CC(=N)N)(C3)C2` [Example 5, 3,5-Dimethyl-1-adamantaneacetiniidamide hydrochloride], for which the half-maximal inhibitory concentration (IC50) was determined as 82 µM in data set [1] and 56 µM in data set [3]. For the same compound, the “Ratio of cortical” value in data set [2] is 1.5. The like results for `CC12CC3CC(C1)CC(C(=N)N)(C3)C2.Cl` [Example 12, 3-Methyl-1-adamantanecarboximidamide hydrochloride] were, in that order, 96 µM, 36 µM and 2.7.

As for `N=C(N)C12CC3CC(CC(Cl)(C3)C1)C2` (as salt: hydrochloride) [Example 2, 3-Chloro-1-adamantanecarboximidamide hydrochloride], the melting point was 215 to 216 °C. As to `CCC12CC3CC(C1)CC(C(=N)N)(C3)C2` (as salt: hydrochloride) [Example 4, 3-Ethyl-1-adamantanecarboximidamide hydrochloride], the melting point was 210 to 212 °C. On the same count and under the same terms, for `CN(C)CCNC(=N)C12CC3CC(CC(C3)C1)C2` (as salt: hydrochloride) [Example 10, N-(2-Dimethylaminoethyl)-1-adamantanecarboximidamide dihydrochloride] the value was 293 °C (dec.).

As for `Cl.N=C(N)C12CC3CC(C1)CC(c1ccc([N+](=O)[O-])cc1)(C3)C2` [Example 14, 3-(4-Nitrophenyl)-1-adamantanecarboximidamide hydrochloride], the IC50 in data set [1] came out at 406 µM; in data set [3], 234 µM. Besides, in data set [2], the “Ratio of cortical” value is given as 1.7. For `N=C(N)CC(c1ccccc1)C12CC3CC(CC(C3)C1)C2` (centres unmarked) [Example 18, 3-(1-Adamantyl)-3-phenylpropanimidamide hydrochloride], in data set [1], the IC50 was found to be 27 µM. As for `N=C(N)C12CC3CC(CC(Br)(C3)C1)C2` (as salt: hydrochloride) [Example 3, 3-Bromo-1-adamantanecarboximidamide hydrochloride], the melting point lay in the range of 221 to 223 °C.
